Measured values published in PubChem BioAssay (NCI).
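In this assay, cells in 96-well plates receive the compound at five concentrations for 48 hours. Endpoints are linearly interpolated between the surrounding concentrations. TGI is the concentration that stops growth completely.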

What was measured:
Assay in all cases: NCI tumour cell line growth inhibition, 48 h
786-0 renal = system: 786-0 renal
A498 renal = system: A498 renal
A549 NSCLC = system: A549 NSCLC
ACHN renal = system: ACHN renal
BT-549 breast = system: BT-549 breast
CAKI-1 renal = system: CAKI-1 renal
CCRF-CEM leukemia = system: CCRF-CEM leukemia
COLO 205 colon = system: COLO 205 colon
DU-145 prostate = system: DU-145 prostate
EKVX NSCLC = system: EKVX NSCLC
HCT-116 colon = system: HCT-116 colon
HCT-15 colon = system: HCT-15 colon
HL-60(TB) leukemia = system: HL-60(TB) leukemia
HOP-92 NSCLC = system: HOP-92 NSCLC
HT29 colon = system: HT29 colon
IGROV1 ovarian = system: IGROV1 ovarian
K-562 leukemia = system: K-562 leukemia
KM12 colon = system: KM12 colon
LOX IMVI melanoma = system: LOX IMVI melanoma
M14 melanoma = system: M14 melanoma
MALME-3M melanoma = system: MALME-3M melanoma
MCF7 breast = system: MCF7 breast
MDA-MB-231 breast = system: MDA-MB-231 breast
MDA-MB-435 = system: MDA-MB-435
MDA-N = system: MDA-N
MOLT-4 leukemia = system: MOLT-4 leukemia
NCI-H226 lung = system: NCI-H226 lung
NCI-H23 lung = system: NCI-H23 lung
NCI-H460 lung = system: NCI-H460 lung
NCI-H522 lung = system: NCI-H522 lung
NCI/ADR-RES ovarian = system: NCI/ADR-RES ovarian
OVCAR-3 ovarian = system: OVCAR-3 ovarian
OVCAR-4 ovarian = system: OVCAR-4 ovarian
OVCAR-5 ovarian = system: OVCAR-5 ovarian
OVCAR-8 ovarian = system: OVCAR-8 ovarian
PC-3 prostate = system: PC-3 prostate
RXF 393 renal = system: RXF 393 renal
SF-295 CNS = system: SF-295 CNS
SF-539 CNS = system: SF-539 CNS
SK-MEL-2 melanoma = system: SK-MEL-2 melanoma
SK-MEL-28 melanoma = system: SK-MEL-28 melanoma
SK-MEL-5 melanoma = system: SK-MEL-5 melanoma
SK-OV-3 ovarian = system: SK-OV-3 ovarian
SN12C renal = system: SN12C renal
SNB-19 CNS = system: SNB-19 CNS
SNB-75 CNS = system: SNB-75 CNS
SR leukemia = system: SR leukemia
SW-620 colon = system: SW-620 colon
T-47D breast = system: T-47D breast
TK-10 renal = system: TK-10 renal
U251 CNS = system: U251 CNS
UACC-257 melanoma = system: UACC-257 melanoma
UACC-62 melanoma = system: UACC-62 melanoma
UO-31 renal = system: UO-31 renal
HCC-2998 colon = system: HCC-2998 colon
HOP-62 NSCLC = system: HOP-62 NSCLC
HS 578T breast = system: HS 578T breast
RPMI-8226 leukemia = system: RPMI-8226 leukemia
SF-268 CNS = system: SF-268 CNS

Measured: TGI

CO[P@]1(=O)O[C@@H](c2ccccc2)[C@H](O)[C@@]1(O)c1ccccc1
> 100 µM: 786-0 renal | A498 renal | A549 NSCLC | ACHN renal | BT-549 breast | CAKI-1 renal | CCRF-CEM leukemia | COLO 205 colon | DU-145 prostate | EKVX NSCLC | HCT-116 colon | HCT-15 colon | HL-60(TB) leukemia | HOP-92 NSCLC | HT29 colon | IGROV1 ovarian | K-562 leukemia | KM12 colon | LOX IMVI melanoma | M14 melanoma | MALME-3M melanoma | MCF7 breast | MDA-MB-231 breast | MDA-MB-435 | MDA-N | MOLT-4 leukemia | NCI-H226 lung | NCI-H23 lung | NCI-H460 lung | NCI-H522 lung | NCI/ADR-RES ovarian | OVCAR-3 ovarian | OVCAR-4 ovarian | OVCAR-5 ovarian | OVCAR-8 ovarian | PC-3 prostate | RXF 393 renal | SF-295 CNS | SF-539 CNS | SK-MEL-2 melanoma | SK-MEL-28 melanoma | SK-MEL-5 melanoma | SK-OV-3 ovarian | SN12C renal | SNB-19 CNS | SNB-75 CNS | SR leukemia | SW-620 colon | T-47D breast | TK-10 renal | U251 CNS | UACC-257 melanoma | UACC-62 melanoma | UO-31 renal

COC(=O)C(C(=O)C(=O)NC1Nc2ccc(C)cc2S1)c1nc2ccc(Cl)cc2[nH]c1=O (configuration not stated)
> 100 µM: 786-0 renal | A498 renal | A549 NSCLC | ACHN renal | BT-549 breast | CAKI-1 renal | EKVX NSCLC | HCC-2998 colon | HCT-116 colon | HCT-15 colon | HL-60(TB) leukemia | HOP-62 NSCLC | HOP-92 NSCLC | HS 578T breast | HT29 colon | IGROV1 ovarian | K-562 leukemia | KM12 colon | LOX IMVI melanoma | MALME-3M melanoma | MCF7 breast | MDA-MB-231 breast | MDA-MB-435 | MDA-N | NCI-H226 lung | NCI-H23 lung | NCI-H460 lung | NCI-H522 lung | NCI/ADR-RES ovarian | OVCAR-3 ovarian | OVCAR-4 ovarian | OVCAR-5 ovarian | OVCAR-8 ovarian | PC-3 prostate | RPMI-8226 leukemia | RXF 393 renal | SF-268 CNS | SF-295 CNS | SF-539 CNS | SK-MEL-2 melanoma | SK-MEL-28 melanoma | SK-MEL-5 melanoma | SK-OV-3 ovarian | SN12C renal | SNB-19 CNS | SNB-75 CNS | SW-620 colon | T-47D breast | TK-10 renal | U251 CNS | UACC-257 melanoma | UACC-62 melanoma | UO-31 renal
